# According to US8664257B2, “Oxygen-substituted 3-heteroaroylamino-propionic acid derivatives and their use as pharmaceuticals” (Sanofi, priority 2010, dated 2014):
# Molecular target: T1, Recombinant human cathepsin A (Homo sapiens, UniProt P10619)
# T1 construct: Recombinant human cathepsin A (residues 29-480, with a C-terminal 10-His tag); 10-His (C); purchased R&D Systems 1049-SE
# T1 sequence (P10619 29-312 limits assumed): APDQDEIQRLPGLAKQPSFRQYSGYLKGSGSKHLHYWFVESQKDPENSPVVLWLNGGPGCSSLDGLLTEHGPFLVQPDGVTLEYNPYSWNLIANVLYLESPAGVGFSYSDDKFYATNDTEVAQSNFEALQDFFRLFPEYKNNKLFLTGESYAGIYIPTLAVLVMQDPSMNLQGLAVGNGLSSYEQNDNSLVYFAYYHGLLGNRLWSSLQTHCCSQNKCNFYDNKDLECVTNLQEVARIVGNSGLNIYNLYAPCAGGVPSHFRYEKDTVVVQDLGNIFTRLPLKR
# T1 sequence (P10619 327-480 limits assumed): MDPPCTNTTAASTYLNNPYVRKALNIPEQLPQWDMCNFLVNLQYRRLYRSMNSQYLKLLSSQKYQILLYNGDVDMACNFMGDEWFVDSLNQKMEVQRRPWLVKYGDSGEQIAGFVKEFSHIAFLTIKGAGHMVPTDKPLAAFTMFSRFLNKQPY
# Experiment: Cathepsin A inhibitory activity
# Assay type: biochemical
# Settings: pharmacological test "Cathepsin A inhibitory activity"; IC50 given as class A/B/C; read-out: Activity (2): Cathepsin A inhibitory activity, IC50 class
# How it was run: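 Read-out was microfluidic separation of cleaved vs. uncleaved Bodipy FL-bradykinin (2 μM), giving turnover, % inhibition and IC50. Compound and 833 ng/ml enzyme met for 15 min RT in pH 5.5 MES/DTT before substrate (15 min RT). The 29-480 His-tagged human enzyme was first activated by cathepsin L, then E-64 (10 μM).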
row,IC50 [nM],Compound
1,100 to 1000,O=C(O)CC(NC(=O)c1cc(O)n(-c2ccccc2Cl)n1)c1ccc(-c2ccccc2)cc1 (stereo not drawn) [Example 226]
2,100 to 1000,O=C(O)C[C@H](NC(=O)c1cc(O)n(-c2ccc(F)cc2F)n1)c1cccc(F)c1 [Example 183]
3,1000 to 30000,O=C(O)CC(NC(=O)c1cc(O)n(-c2cccc(Cl)c2)n1)c1ccc(-c2cccc(F)c2)cc1 (stereo not drawn) [Example 260]
4,100 to 1000,O=C(O)CC(NC(=O)c1cc(O)n(-c2ccc(F)cc2F)n1)c1ccc(OC(F)(F)F)cc1 (stereo not drawn) [Example 187]
5,100 to 1000,Cc1cccc([C@H](CC(=O)O)NC(=O)c2cc(O)n(-c3ccc(F)cc3F)n2)c1 [Example 190]
6,100 to 1000,O=C(O)C[C@H](NC(=O)c1cc(O)n(-c2ccc(F)cc2F)n1)c1ccc(F)cc1 [Example 180]
7,100 to 1000,O=C(O)CC(NC(=O)c1cc(O)n(-c2ccccc2)n1)c1ccc(-c2cccc(F)c2)cc1 (stereo not drawn) [Example 171]

# The remaining lines, values behind:
row,Compound,IC50 [nM]
1,O=C(O)C[C@H](NC(=O)c1cc(O)n(-c2cccc(Cl)c2)n1)c1cccnc1 [Example 268],1000 to 30000
2,O=C(O)CC(NC(=O)c1cc(O)n(-c2ccc(F)cc2F)n1)c1cccc(Cl)c1Cl (stereo not drawn) [Example 186],100 to 1000

# Same assay, conditions: read-out: Activity (2): Cathepsin A inhibitory activity (IC50 class)
row,IC50 [nM],Compound
1,1000 to 30000,O=C(O)CC(NC(=O)c1cc(O)n(C2CCCCC2)n1)c1ccc(-c2ccc(F)cc2)cc1 (stereo not drawn) [Example 575]
2,< 100,Cc1ccccc1[C@H](CC(=O)O)NC(=O)c1cc(OC2CCCCC2)n(-c2ccccc2F)n1 [Example 631]

# The remaining lines, values behind:
row,Compound,IC50 [nM]
1,O=C(O)C[C@H](NC(=O)c1cc(OCC2CC2)n(-c2ccccc2F)n1)c1ccc(Cl)cc1Cl [Example 693],100 to 1000
2,CCOc1cc(C(=O)NC(CC(=O)O)c2ccc(F)cc2C)nn1-c1ccccc1F (stereo not drawn) [Example 718],< 100
3,COc1cc(C(=O)NC(CC(=O)O)c2cc(Cl)ccc2Cl)nn1-c1ccccc1F (stereo not drawn) [Example 683],< 100
4,CCOc1cc(C(=O)N[C@@H](CC(=O)O)c2ccccc2C)nn1-c1ccccc1Cl [Example 727],< 100
5,"CC(C)(C)[C@](C)(O)COc1cc(C(=O)N[C@@H](CC(=O)O)c2ccccc2Cl)nn1-c1ccccc1F [Example 789, (S)-3-(2-Chloro-phenyl)-3-{[1-(2-fluoro-phenyl)-5-((S)-2-hydroxy-2,3,3-trimethyl-butoxy)-1H-pyrazole-3-carbonyl]-amino}-propionic acid]",< 100
6,CCOc1cc(C(=O)N[C@@H](CC(=O)O)c2ccccc2OC)nn1-c1ccccc1Cl [Example 729],100 to 1000
7,O=C(O)CC(NC(=O)c1cc(OCC2CC2)n(-c2ccccc2F)n1)c1cc(Cl)ccc1Cl (stereo not drawn) [Example 704],< 100
8,Cc1ccccc1[C@H](CC(=O)O)NC(=O)c1cc(OC(C)C)n(-c2ccccc2F)n1 [Example 630],< 100
9,"Cc1ccccc1[C@H](CC(=O)O)NC(=O)c1cc(OC[C@@](C)(O)C(C)(C)C)n(-c2ccccc2F)n1 (single isomer, unassigned) [Example 748]",< 100
10,"CC(C)(O)COc1cc(C(=O)N[C@@H](CC(=O)O)c2ccc(Cl)cc2Cl)nn1-c1ccccc1F [Example 751, (S)-3-(2,4-Dichloro-phenyl)-3-{[1-(2-fluoro-phenyl)-5-(2-hydroxy-2-methyl-propoxy)-1H-pyrazole-3-carbonyl]-amino}-propionic acid]",< 100
11,CCOCCOCCOc1cc(C(=O)N[C@@H](CC(=O)O)c2ccccc2C)nn1-c1ccccc1F [Example 637],< 100

# Same assay, conditions: read-out: Activity (2): Cathepsin A inhibitory activity, IC50 class
row,IC50 [nM],Compound
1,100 to 1000,O=C(O)C[C@H](NC(=O)c1cc(O)n(-c2cccc(F)c2)n1)c1cccc(C(F)(F)F)c1 [Example 318]
2,1000 to 30000,Cc1ccc(C)c(-n2nc(C(=O)NC(CC(=O)O)c3ccc(CC(C)C)cc3)cc2O)c1 (stereo not drawn) [Example 46]
3,100 to 1000,COc1cccc([C@H](CC(=O)O)NC(=O)c2cc(O)n(-c3ccc(F)cc3)n2)c1OC [Example 353]
4,1000 to 30000,O=C(O)C[C@H](NC(=O)c1cc(O)n(-c2ccc(Cl)cc2)n1)c1cccnc1 [Example 298]
5,100 to 1000,O=C(O)C[C@H](NC(=O)c1cc(O)n(-c2ccc(F)cc2)n1)c1ccccc1F [Example 366]

# More lines, now with the values behind:
row,Compound,IC50 [nM]
1,CCCC(CC(=O)O)NC(=O)c1cc(O)n(-c2ccccc2)n1 (stereo not drawn) [Example 2],1000 to 30000
2,Cc1ccccc1[C@H](CC(=O)O)NC(=O)c1cc(O)n(-c2ccccc2)n1 [Example 82],< 100
3,Cc1ccc(C)c(C(CC(=O)O)NC(=O)c2cc(O)n(-c3ccccc3)n2)c1 (stereo not drawn) [Example 378],100 to 1000
4,COc1ccc(C(CC(=O)O)NC(=O)c2cc(O)n(-c3ccccc3F)n2)c(C)c1 (stereo not drawn) [Example 395],100 to 1000
5,O=C(O)C[C@H](NC(=O)c1cc(O)n(-c2ccccc2Cl)n1)c1ccc(Cl)cc1Cl [Example 106],100 to 1000
6,Cc1ccc(C)c(-n2nc(C(=O)NC(CCc3ccccc3)CC(=O)O)cc2O)c1 (stereo not drawn) [Example 34],1000 to 30000
7,O=C(O)C[C@H](NC(=O)c1cc(O)n(-c2ccc(F)cc2F)n1)c1c(F)cccc1F [Example 388],100 to 1000
8,COc1cccc([C@H](CC(=O)O)NC(=O)c2cc(O)n(-c3ccccc3Cl)n2)c1OC [Example 394],100 to 1000
9,"CC(C)(C)[C@](C)(O)COc1cc(C(=O)N[C@@H](CC(=O)O)c2cccc(F)c2)nn1-c1ccccc1F [Example 819, (S)-3-(3-Fluoro-phenyl)-3-{[1-(2-fluoro-phenyl)-5-((S)-2-hydroxy-2,3,3-trimethyl-butoxy)-1H-pyrazole-3-carbonyl]-amino}-propionic acid]",< 100
10,Cc1ccccc1[C@H](CC(=O)O)NC(=O)c1cc(O)n(-c2ccnc(Cl)c2)n1 [Example 131],100 to 1000
11,"Cc1ccc(C)c(-n2nc(C(=O)NC(CC(=O)O)c3cccc(OC(C)(C)C)c3)cc2O)c1 (stereo not drawn) [Example 7, 3-(3-tert-Butoxy-phenyl)-3-{[1-(2,5-dimethyl-phenyl)-5-hydroxy-1H-pyrazole-3-carbonyl]-amino}-propionic acid]",1000 to 30000
12,COc1cccc(C(CC(=O)O)NC(=O)c2cc(O)n(-c3cc(C)ccc3C)n2)c1 (stereo not drawn) [Example 28],1000 to 30000

# Same assay, conditions: recombinant human cathepsin A 833 ng/ml, Bodipy FL-labeled bradykinin 2 μM, pH 5.5; read-out: CATH-A IC50
row,IC50 [nM],Compound
1,11100,"CN(C)c1ccc(C(CC(=O)O)NC(=O)c2cc(O)n(-c3cccc(Cl)c3)n2)c(Cl)c1 (stereo not drawn) [Example 463, 3-(2-Chloro-4-dimethylamino-phenyl)-3-{[1-(3-chloro-phenyl)-5-hydroxy-1H-pyrazole-3-carbonyl]-amino}-propionic acid]"
2,860,"COc1cccc(F)c1C(CC(=O)O)NC(=O)c1cc(O)n(-c2ccc(Cl)cc2)n1 (stereo not drawn) [Example 469, 3-{[1-(4-Chloro-phenyl)-5-hydroxy-1H-pyrazole-3-carbonyl]-amino}-3-(2-fluoro-6-methoxy-phenyl)-propionic acid]"
3,2.56,"Cc1ccccc1[C@H](CC(=O)O)NC(=O)c1cc(OC[C@@](C)(O)C(C)(C)C)n(-c2ccccc2F)n1 (single isomer, unassigned) [Example 748]"
4,223,"O=C(O)CC(NC(=O)c1cc(O)n(-c2ccccc2Cl)n1)c1cc(F)ccc1Cl (stereo not drawn) [Example 458, 3-(2-Chloro-5-fluoro-phenyl)-3-{[1-(2-chloro-phenyl)-5-hydroxy-1H-pyrazole-3-carbonyl]-amino}-propionic acid]"
5,486,"O=C(O)CC(NC(=O)c1cc(O)n(-c2ccc(Cl)cc2)n1)c1cccc2c1OC(F)(F)O2 (stereo not drawn) [Example 471, 3-{[1-(4-Chloro-phenyl)-5-hydroxy-1H-pyrazole-3-carbonyl]-amino}-3-(2,2-difluoro-benzo[1,3]dioxol-4-yl)-propionic acid]"
6,114,"Cc1c(F)cccc1C(CC(=O)O)NC(=O)c1cc(O)n(-c2ccc(F)cc2F)n1 (stereo not drawn) [Example 447, 3-{[1-(2,4-Difluoro-phenyl)-5-hydroxy-1H-pyrazole-3-carbonyl]-amino}-3-(3-fluoro-2-methyl-phenyl)-propionic acid]"

# Same assay, conditions: recombinant human cathepsin A; read-out: Activity (2): Cathepsin A inhibitory activity, IC50 class
row,IC50 [nM],Compound
1,1000 to 30000,COc1ccc([C@H](CC(=O)O)NC(=O)c2cc(O)n(-c3cccc(Cl)c3)n2)cc1 [Example 409]
2,100 to 1000,Cc1ccc([C@H](CC(=O)O)NC(=O)c2cc(O)n(-c3ccccc3F)n2)cc1 [Example 480]
3,1000 to 30000,O=C(O)CC(NC(=O)c1cc(O)n(-c2ccccc2F)n1)c1ccc(N2CCOCC2)cc1 (stereo not drawn) [Example 518]

# The remaining lines, values behind:
row,Compound,IC50 [nM]
1,Cc1ccccc1[C@H](CC(=O)O)NC(=O)c1cc(O)n(Cc2ccccc2)n1 [Example 533],100 to 1000
2,"CN(C)c1ccc(C(CC(=O)O)NC(=O)c2cc(O)n(-c3cccc(Cl)c3)n2)c(Cl)c1 (stereo not drawn) [Example 463, 3-(2-Chloro-4-dimethylamino-phenyl)-3-{[1-(3-chloro-phenyl)-5-hydroxy-1H-pyrazole-3-carbonyl]-amino}-propionic acid]",1000 to 30000
3,"COc1cccc(F)c1C(CC(=O)O)NC(=O)c1cc(O)n(-c2ccc(Cl)cc2)n1 (stereo not drawn) [Example 469, 3-{[1-(4-Chloro-phenyl)-5-hydroxy-1H-pyrazole-3-carbonyl]-amino}-3-(2-fluoro-6-methoxy-phenyl)-propionic acid]",100 to 1000
4,"CCC(C)(C)NC(=O)C[C@H](NC(=O)c1cc(OC)n(-c2ccccc2F)n1)c1ccccc1C [Example 917, 1-(2-Fluoro-phenyl)-5-methoxy-1H-pyrazole-3-carboxylic acid [(S)-2-(1,1-dimethyl-propylcarbamoyl)-1-o-tolyl-ethyl]-amide]",1000 to 30000
5,"COc1cc(C(=O)N[C@@H](CC(=O)NCC#N)c2ccccc2C)nn1-c1ccccc1F [Example 926, 1-(2-Fluoro-phenyl)-5-methoxy-1H-pyrazole-3-carboxylic acid [(S)-2-(cyanomethyl-carbamoyl)-1-o-tolyl-ethyl]-amide]",1000 to 30000
6,"O=C(O)CC(NC(=O)c1cc(O)n(-c2ccccc2Cl)n1)c1cc(F)ccc1Cl (stereo not drawn) [Example 458, 3-(2-Chloro-5-fluoro-phenyl)-3-{[1-(2-chloro-phenyl)-5-hydroxy-1H-pyrazole-3-carbonyl]-amino}-propionic acid]",100 to 1000
7,"O=C(O)CC(NC(=O)c1cc(O)n(-c2ccc(Cl)cc2)n1)c1cccc2c1OC(F)(F)O2 (stereo not drawn) [Example 471, 3-{[1-(4-Chloro-phenyl)-5-hydroxy-1H-pyrazole-3-carbonyl]-amino}-3-(2,2-difluoro-benzo[1,3]dioxol-4-yl)-propionic acid]",100 to 1000
8,Cc1ccccc1[C@H](CC(=O)O)NC(=O)c1cc(O)n(-c2ccccc2C)n1 [Example 532],< 100
9,"Cc1c(F)cccc1C(CC(=O)O)NC(=O)c1cc(O)n(-c2ccc(F)cc2F)n1 (stereo not drawn) [Example 447, 3-{[1-(2,4-Difluoro-phenyl)-5-hydroxy-1H-pyrazole-3-carbonyl]-amino}-3-(3-fluoro-2-methyl-phenyl)-propionic acid]",100 to 1000
